Where a name gives a salt, the structure may show the parent alone. Read-outs that look alike come from different tables or passages of the source. Marks after values point to notes of the source that are not given here.
Experiments:
[1] = Maximum plasma concentration from in vivo pharmacokinetic studies after therapeutic dosing; conditions: human, the literature Cmax (ng/mL) of Table 2 expressed in µM
Source text: As Cmax the (geometric) mean or median maximum plasma concentrations obtained from previous in vivo pharmacokinetic studies after therapeutic dosing was used.

[2] = cited from earlier work
human OCT2 = biological target: T1, human OCT2 (Homo sapiens, UniProt O15244); test: Inhibition of OCT2-mediated ASP uptake in transduced HEK293 cells; format: cell-based
T1 construct: host or cells: HEK293, baculovirus transduction (CMV promoter), transient
T1 sequence (O15244 1-555): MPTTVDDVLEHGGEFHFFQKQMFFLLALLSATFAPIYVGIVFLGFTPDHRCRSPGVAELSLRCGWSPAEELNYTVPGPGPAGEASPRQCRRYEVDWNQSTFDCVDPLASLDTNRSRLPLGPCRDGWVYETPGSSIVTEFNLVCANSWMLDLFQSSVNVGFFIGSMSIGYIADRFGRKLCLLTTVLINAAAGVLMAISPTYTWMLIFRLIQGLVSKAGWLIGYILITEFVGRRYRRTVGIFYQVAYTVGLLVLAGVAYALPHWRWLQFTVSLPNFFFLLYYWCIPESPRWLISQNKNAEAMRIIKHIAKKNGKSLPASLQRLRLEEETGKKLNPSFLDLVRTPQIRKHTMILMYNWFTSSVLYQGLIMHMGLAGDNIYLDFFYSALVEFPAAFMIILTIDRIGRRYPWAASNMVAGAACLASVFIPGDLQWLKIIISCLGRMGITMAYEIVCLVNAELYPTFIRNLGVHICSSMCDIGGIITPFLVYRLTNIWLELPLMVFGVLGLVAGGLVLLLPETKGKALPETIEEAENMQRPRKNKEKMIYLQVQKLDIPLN
Experimental: HEK293 cells were modified to transiently express (a combination of) human OCT1, OCT2, MATE1, MATE2-K, or eYFP. Briefly, cDNA of the respective genes was cloned downstream of a CMV promoter into a baculovirus, of which passage three was used to transduce HEK293 cells. These cells were seeded in poly-D-lysine coated 24- or 96-wells plates and grown in a 37 °C incubator at 5% CO2. […] After 24 h, cells were transduced with 30 µL virus (10 µL virus + 20 µL complete medium in case of 96-wells plates) or 2 × 15 µL virus for cells that required simultaneous expression of two transporters. Finally, 195 µL sodium butyrate (45 µL for 96-wells plates) was added to a final concentration of 2 mM to enhance protein expression.
AMO (10 mM), ASP (1 mM), CQ (10 mM), PQ (10 mM) and PG (10 mM) were dissolved in MilliQ water. ART (10 mM), ATO (10 mM), DHA (10 mM), LUM (10 mM), MQ (10 mM), NMQ (20 mM), PYR (10 mM), QN (10 mM) were dissolved in DMSO. All compound stocks were stored at − 20 °C. Inhibition of OCT1- or OCT2-mediated ASP uptake by anti-malarials was performed in poly-D-lysine coated 96-wells plates 2 or 3 days following HEK293 cell transduction. In short, cells were washed with 125 µL 37 °C HBSS containing 10 mM HEPES, pH 7.4. […] ASP transport was stopped by washing with 125 µL ice-cold HBSS-HEPES buffer supplemented with 0.5% BSA.
(§1) For each compound, a range of seven concentrations was used to determine the concentration at which ASP uptake was inhibited half maximally (IC50). At least three independent experiments (4 for QN) were performed for each drug in triplicate as described above. […] To generate the final dose–response inhibition curve per anti-malarial, percentage of uptake was averaged for each drug concentration per experiment and the resulting mean ± SEM corresponding to three or four independent experiments were plotted.

[3] = Ugandan children aged 5–13 years with uncomplicated malaria; (geometric) mean or median; cited from earlier work
human OCT1 = biological target: T2, human OCT1 (Homo sapiens, UniProt O15245); test: Inhibition of OCT1-mediated ASP uptake in transduced HEK293 cells; format: cell-based; conditions: 50 µM anti-malarial, 10 µM ASP, 10 min, 37 °C; relative to solvent control fixed at 100%
T2 construct: host or cells: HEK293, baculovirus transduction (CMV promoter), transient
T2 sequence (O15245 1-554): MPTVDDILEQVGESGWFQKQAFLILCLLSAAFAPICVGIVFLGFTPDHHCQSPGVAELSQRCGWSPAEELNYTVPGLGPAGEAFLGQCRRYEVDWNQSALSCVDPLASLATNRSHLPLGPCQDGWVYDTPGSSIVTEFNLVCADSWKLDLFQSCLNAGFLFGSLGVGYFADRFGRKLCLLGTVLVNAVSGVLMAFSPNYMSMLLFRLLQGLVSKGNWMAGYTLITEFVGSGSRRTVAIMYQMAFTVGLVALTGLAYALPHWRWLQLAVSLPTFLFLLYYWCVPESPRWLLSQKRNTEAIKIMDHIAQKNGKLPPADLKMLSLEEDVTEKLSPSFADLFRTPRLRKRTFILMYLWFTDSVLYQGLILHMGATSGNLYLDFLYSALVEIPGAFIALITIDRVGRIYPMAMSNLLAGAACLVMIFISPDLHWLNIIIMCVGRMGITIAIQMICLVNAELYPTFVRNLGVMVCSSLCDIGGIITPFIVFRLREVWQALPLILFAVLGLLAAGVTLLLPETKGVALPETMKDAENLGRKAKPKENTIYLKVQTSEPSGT
Experimental: HEK293 cells were modified to transiently express (a combination of) human OCT1, OCT2, MATE1, MATE2-K, or eYFP. Briefly, cDNA of the respective genes was cloned downstream of a CMV promoter into a baculovirus, of which passage three was used to transduce HEK293 cells. These cells were seeded in poly-D-lysine coated 24- or 96-wells plates and grown in a 37 °C incubator at 5% CO2. Growth was initiated at ~ 25% confluency using 375 or 125 μL cell and complete medium (DMEM + GlutaMAX™-I supplemented with 10% fetal bovine serum) suspension per well, respectively. After 24 h, cells were transduced with 30 µL virus (10 µL virus + 20 µL complete medium in case of 96-wells plates) or 2 × 15 µL virus for cells that required simultaneous expression of two transporters. Finally, 195 µL sodium butyrate (45 µL for 96-wells plates) was added to a final concentration of 2 mM to enhance protein expression.
AMO (10 mM), ASP (1 mM), CQ (10 mM), PQ (10 mM) and PG (10 mM) were dissolved in MilliQ water. ART (10 mM), ATO (10 mM), DHA (10 mM), LUM (10 mM), MQ (10 mM), NMQ (20 mM), PYR (10 mM), QN (10 mM) were dissolved in DMSO. All compound stocks were stored at − 20 °C. Inhibition of OCT1- or OCT2-mediated ASP uptake by anti-malarials was performed in poly-D-lysine coated 96-wells plates 2 or 3 days following HEK293 cell transduction. In short, cells were washed with 125 µL 37 °C HBSS containing 10 mM HEPES, pH 7.4. Then, a 50 µL mixture of ASP (10 µM) and anti-malarial compound (25, 50 or 100 µM) in HBSS buffer (pH 7.4) was added to each well and incubated for 10 min at 37 °C. ASP transport was stopped by washing with 125 µL ice-cold HBSS-HEPES buffer supplemented with 0.5% BSA. Following a second wash with 125 µL ice-cold HBSS-HEPES buffer, cells were lysed with 125 µL 1 M NaOH and ASP was excited at a wavelength of 485 nm and fluorescence was detected at an emission wavelength of 535 nm using the Victor X3 multimode plate reader.
as §1, with “above. Inhibition curves were plotted by nonlinear regression analyses of the data using GraphPad Prism version 5.03.” for “above.”

[4] = 50 µM anti-malarial, 10 µM ASP, 10 min, 37 °C, relative to solvent control fixed at 100%

SMILES	Cmax [1] [µM]	Unbound fraction [2]	IC50 (human OCT2; 10 µM ASP, 10 min, 37 °C, seven concentrations) [µM]	Relative ASP uptake (OCT2-mediated) (human OCT2; [4]) [%]	Cmax [3]	Relative ASP uptake (OCT1-mediated) (human OCT1) [%]	Relative ASP uptake (OCT2-mediated) (human OCT2) [%]
CCN(CC)Cc1cc(Nc2ccnc3cc(Cl)ccc23)ccc1O [Amodiaquine, amodiaquine dihydrochloride dehydrate]	0.015	0.1 [46]	11	12.1 ± 0.6	5.2^c [45] ng/mL	67 ± 4	–
C[C@@H]1CC[C@H]2[C@@H](C)C(=O)O[C@@H]3O[C@@]4(C)CC[C@@H]1[C@]32OO4 [Artemisinin, artemisinin]	–	–	–	61 ± 13	–	–	–
CCN(CC)CCCC(C)Nc1ccnc2cc(Cl)ccc12 (centres unmarked) [Chloroquine, chloroquine diphosphate]	–	–	–	–	–	–	48 ± 11

Source: PMC5654082 (Malaria Journal, 2017)
